Where a name gives a salt, the structure may show the parent alone.

In general, IC50 refers to the point on the concentration scale where inhibition reaches its midpoint.

The assay has as its target T1, human NCX1 (Homo sapiens, UniProt P32418).
T1 construct: expressed in transfected cells
As to the kind of experiment: Inhibition of Ca2+ influx into cells (NCX1 reverse mode), FLIPR Fluo-4 assay. The format is cell-based. To be noted: inhibition of NCX1 in reverse mode (Ca2+ influx into cells); read-out: NCX1rv IC50. The gist of the method:
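Ca2+ influx via reverse-mode exchange was evoked with gramicidin (20 µM final) after 45 min compound exposure at 16 °C in stably transfected CHO cells. Fluo-4 signal (520 nm) was followed on FLIPR at 2 s intervals. Max–min fluorescence gave percentage inhibition, from which IC50 was calculated.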
Turning to `Cc1c(F)cccc1C1CCc2cc(OC3CCC(C(=O)NC4CCCC4O)CC3)ccc2O1` (single isomer, unassigned; stereoisomer 2) [compound 280, 4-[2-(3-Fluoro-2-methyl-phenyl)chroman-6-yloxy]-N-(2-hydroxycyclopentyl)cyclohexane-carboxamide, stereoisomer 2 (2)], the IC50 turned out to be 100 nM.
The same measure for `N[C@H]1CC[C@H](Oc2ccc3c(c2)CCC(c2ccccc2)O3)CC1` (stereo partly drawn) [compound 5, trans-4-(2-Phenylchroman-6-yloxy)cyclohexylamine]: 300 nM; for `N[C@H]1CC[C@H](Oc2ccc3c(c2)CC[C@H](c2ccccc2)O3)CC1` [compound 9, hydrochloride]: 300 nM; for `N[C@H]1CC[C@H](Oc2ccc3c(c2)CC[C@@H](c2ccccc2)O3)CC1` [compound 10, hydrochloride]: 300 nM.
For `CCC(N)C1(CC)CCC(Oc2ccc3c(c2)CCC(c2ccccc2)O3)CC1` (stereo not drawn) [compound 11, hydrochloride], the half-inhibitory concentration (IC50) was determined as 2800 nM.
As for `NCC(=O)NC1CCC(Oc2ccc3c(c2)CCC(c2ccccc2)O3)CC1` (stereo not drawn) [compound 12, hydrochloride], the IC50 is 200 nM.
The same measure for `O=C(NCc1ccno1)C1CCC(Oc2ccc3c(c2)CCC(c2ccccc2)O3)CC1` (stereo not drawn) [compound 13]: 300 nM; for `CCn1nccc1CNC(=O)C1CCC(Oc2ccc3c(c2)CCC(c2ccccc2)O3)CC1` (stereo not drawn) [compound 14]: 400 nM.
As to `OCCNC1CCC(Oc2ccc3c(c2)CCC(c2ccccc2)O3)CC1` (stereo not drawn) [compound 15], the IC50 was determined as 200 nM.
The same measure for `CN(C)C(=O)NC1CCC(Oc2ccc3c(c2)CCC(c2ccccc2)O3)CC1` (stereo not drawn) [compound 16]: 1300 nM.
The same measure for `CCCC1(N)CCC(Oc2ccc3c(c2)CCC(c2ccccc2)O3)CC1` (stereo not drawn) [compound 17, hydrochloride]: 1000 nM.
With `CCCN[C@H]1CC[C@H](Oc2ccc3c(c2)CC[C@@H](c2ccccc2)O3)CC1` [compound 18], the half-inhibitory concentration (IC50) is 500 nM.
For the molecule `CO[C@H](C)C(=O)N[C@H]1CC[C@H](Oc2ccc3c(c2)CCC(c2ccccc2)O3)CC1` (stereo partly drawn) [compound 23], the concentration for half-maximal inhibition (IC50) amounted to 300 nM.
The same measure for `CCCN(CCC)[C@H]1CC[C@H](Oc2ccc3c(c2)CC[C@@H](c2ccccc2)O3)CC1` [compound 34]: 1300 nM; for `CSCCCN[C@H]1CC[C@H](Oc2ccc3c(c2)CCC(c2ccccc2)O3)CC1` (stereo partly drawn) [compound 48, N-(3-Methylsulfanylpropyl)-[trans-4-(2-phenylchroman-6-yloxy)]-cyclohexylamine]: 500 nM; for `Cc1cc(CN[C@H]2CC[C@H](Oc3ccc4c(c3)CCC(c3ccccc3)O4)CC2)no1` (stereo partly drawn) [compound 49, N-(5-Methylisoxazol-3-ylmethyl)-[trans-4-(2-phenylchroman-6-yloxy)]-cyclohexylamine]: 600 nM.
The same measure for `Cc1csc(CN[C@H]2CC[C@H](Oc3ccc4c(c3)CCC(c3ccccc3)O4)CC2)n1` (stereo partly drawn) [compound 52, N-[(4-Methylthiazol-2-yl)methyl]-[trans-4-(2-phenylchroman-6-yloxy)]-cyclohexylamine]: 500 nM; for `c1ccc(C2CCc3cc(O[C@H]4CC[C@H](NCc5ccoc5)CC4)ccc3O2)cc1` (stereo partly drawn) [compound 53, N-(Furan-3-ylmethyl)-[trans-4-(2-phenylchroman-6-yloxy)]-cyclohexylamine]: 500 nM; for `Cc1cc(CN[C@H]2CC[C@H](Oc3ccc4c(c3)CCC(c3ccccc3)O4)CC2)nn1C` (stereo partly drawn) [compound 56, N-(1,5-Dimethylpyrazol-3-ylmethyl)-[trans-4-(2-phenylchroman-6-yloxy)]-cyclohexylamine]: 500 nM.
For `Cn1cncc1CN[C@H]1CC[C@H](Oc2ccc3c(c2)CCC(c2ccccc2)O3)CC1` (stereo partly drawn) [compound 57, N-(3-Methylimidazol-4-ylmethyl)-[trans-4-(2-phenylchroman-6-yloxy)]-cyclohexylamine] the value was 500 nM; for `Cc1nc(CN[C@H]2CC[C@H](Oc3ccc4c(c3)CCC(c3ccccc3)O4)CC2)cs1` (stereo partly drawn) [compound 59, N-(2-Methylthiazol-4-ylmethyl)-[trans-4-(2-phenylchroman-6-yloxy)]-cyclohexylamine], 500 nM.
Consider `Cn1cc(Cl)c(CN[C@H]2CC[C@H](Oc3ccc4c(c3)CCC(c3ccccc3)O4)CC2)n1` (stereo partly drawn) [compound 62, N-(4-Chloro-1-methyl-pyrazol-3-ylmethyl)-[trans-4-(2-phenylchroman-6-yloxy)]-cyclohexylamine], for which the 50% inhibitory concentration (IC50) was determined as 600 nM.
As for `c1ccc(C2CCc3cc(O[C@H]4CC[C@H](NCC5CCCCC5)CC4)ccc3O2)cc1` (stereo partly drawn) [compound 63, N-(Cyclohexylmethyl)-[trans-4-(2-phenylchroman-6-yloxy)]-cyclohexylamine], the half-maximal inhibitory concentration (IC50) is 600 nM.
The same measure for `CSC(C)CCN[C@H]1CC[C@H](Oc2ccc3c(c2)CCC(c2ccccc2)O3)CC1` (stereo partly drawn) [compound 64, N-(3-Methylsulfanylbutyl)-[trans-4-(2-phenylchroman-6-yloxy)]-cyclohexylamine]: 500 nM; for `CC(C)CN[C@H]1CC[C@H](Oc2ccc3c(c2)CCC(c2ccccc2)O3)CC1` (stereo partly drawn) [compound 65, N-Isobutyl-[trans-4-(2-phenylchroman-6-yloxy)]-cyclohexylamine]: 400 nM.
For the molecule `Cc1n[nH]cc1CN[C@H]1CC[C@H](Oc2ccc3c(c2)CCC(c2ccccc2)O3)CC1` (stereo partly drawn) [compound 66], the IC50 came out at 400 nM.
For `Cc1ncsc1CN[C@H]1CC[C@H](Oc2ccc3c(c2)CCC(c2ccccc2)O3)CC1` (stereo partly drawn) [compound 67, N-(4-Methylthiazol-5-ylmethyl)-[trans-4-(2-phenylchroman-6-yloxy)]-cyclohexylamine] the value was 400 nM; for `CCn1cc(CN[C@H]2CC[C@H](Oc3ccc4c(c3)CCC(c3ccccc3)O4)CC2)c(C)n1` (stereo partly drawn) [compound 68, N-(1-Ethyl-3-methyl-pyrazol-4-ylmethyl)-[trans-4-(2-phenylchroman-6-yloxy)]-cyclohexylamine], 300 nM.
As to `Clc1ccc(CN[C@H]2CC[C@H](Oc3ccc4c(c3)CCC(c3ccccc3)O4)CC2)s1` (stereo partly drawn) [compound 69, N-(5-Chloro-thiophen-2-ylmethyl)-[trans-4-(2-phenylchroman-6-yloxy)]-cyclohexylamine], the half-maximal inhibitory concentration (IC50) came to 1300 nM.
The same measure for `CCC(C)CN[C@H]1CC[C@H](Oc2ccc3c(c2)CCC(c2ccccc2)O3)CC1` (stereo partly drawn) [compound 70, N-(2-methylbutyl)-[trans-4-(2-phenylchroman-6-yloxy)]-cyclohexylamine]: 500 nM.
The same measure for `CN[C@@H](C)C(=O)N[C@H]1CC[C@H](Oc2ccc3c(c2)CCC(c2ccccc2)O3)CC1` (stereo partly drawn) [compound 71, hydrochloride]: 600 nM.
In the case of `C[C@@H](N)C(=O)N[C@H]1CC[C@H](Oc2ccc3c(c2)CCC(c2ccccc2)O3)CC1` (stereo partly drawn) [compound 72, hydrochloride], the IC50 turned out to be 300 nM.
Take `OC1CCC(Oc2ccc3c(c2)CCC(c2ccccc2)O3)CC1` (stereo not drawn) [compound 74, 4-(2-Phenylchroman-6-yloxy)cyclohexanol]: the concentration for half-maximal inhibition (IC50) worked out at 300 nM.
On to `O=S(=O)(CCc1ccncc1)N[C@H]1CC[C@H](Oc2ccc3c(c2)CC[C@@H](c2ccccc2)O3)CC1` [compound 75], for which the 50% inhibitory concentration (IC50) was 1000 nM.
Regarding `CCn1nccc1CNC1CCC(Oc2ccc3c(c2)CCC(c2ccccc2)O3)CC1` (stereo not drawn) [compound 76], the 50% inhibitory concentration (IC50) came out at 1000 nM.
For `O=C1CCC(Oc2ccc3c(c2)CCC(c2ccccc2)O3)CC1` (stereo not drawn) [compound 77, 4-(2-Phenylchroman-6-yloxy)cyclohexanone] the value was 400 nM; for `CC(=O)OC1CCC(Oc2ccc3c(c2)CCC(c2ccccc2)O3)CC1` (stereo not drawn) [compound 78, [4-(2-Phenylchroman-6-yloxy)cyclohexyl] acetate], 600 nM.
For `c1ccc(C2CCc3cc(O[C@H]4CC[C@H](N(Cc5ccsc5)Cc5ccsc5)CC4)ccc3O2)cc1` (stereo partly drawn) [compound 79, [trans-4-(2-Phenylchroman-6-yloxy)]-N,N-bis(thiophen-3-ylmethyl)cyclohexylamine] the value was 11000 nM; for `c1ccc(C2CCc3cc(O[C@H]4CC[C@H](N(CC5CC5)CC5CC5)CC4)ccc3O2)cc1` (stereo partly drawn) [compound 80, N,N-Bis(cyclopropylmethyl)-[trans-4-(2-phenylchroman-6-yloxy)]-cyclohexylamine], 500 nM.
The same measure for `Cn1cc(Cl)c(CN(Cc2nn(C)cc2Cl)[C@H]2CC[C@H](Oc3ccc4c(c3)CCC(c3ccccc3)O4)CC2)n1` (stereo partly drawn) [compound 81, N,N-Bis(4-chloro-1-methyl-pyrazol-3-ylmethyl)-[trans-4-(2-phenylchroman-6-yloxy)]-cyclohexylamine]: 4000 nM.
With `Cc1cc(CN(Cc2cc(C)on2)[C@H]2CC[C@H](Oc3ccc4c(c3)CCC(c3ccccc3)O4)CC2)no1` (stereo partly drawn) [compound 82, N,N-Bis(5-methylisoxazol-3-ylmethyl)-[trans-4-(2-phenylchroman-6-yloxy)]-cyclohexylamine], the half-inhibitory concentration (IC50) worked out at 3800 nM.
Consider `c1ccc(C2CCc3cc(O[C@H]4CC[C@H](N(Cc5cncs5)Cc5cncs5)CC4)ccc3O2)cc1` (stereo partly drawn) [compound 83, [trans-4-(2-Phenylchroman-6-yloxy)]-N,N-bis(thiazol-5-ylmethyl)cyclohexylamine], for which the IC50 was determined as 1400 nM.
In the case of `Cn1ccc(CN(Cc2ccn(C)n2)[C@H]2CC[C@H](Oc3ccc4c(c3)CCC(c3ccccc3)O4)CC2)n1` (stereo partly drawn) [compound 84, N,N-Bis(1-methylpyrazol-3-ylmethyl)-[trans-4-(2-phenylchroman-6-yloxy)]-cyclohexylamine], the IC50 worked out at 800 nM.
Turning to `c1ccc(C2CCc3cc(O[C@H]4CC[C@H](N(Cc5ccoc5)Cc5ccoc5)CC4)ccc3O2)cc1` (stereo partly drawn) [compound 85, N,N-Bis(furan-3-ylmethyl)-[trans-4-(2-phenylchroman-6-yloxy)]-cyclohexylamine], the concentration for half-maximal inhibition (IC50) is 800 nM.
The same measure for `Cc1nc(CN(Cc2csc(C)n2)[C@H]2CC[C@H](Oc3ccc4c(c3)CCC(c3ccccc3)O4)CC2)cs1` (stereo partly drawn) [compound 86, N,N-Bis(2-methylthiazol-4-ylmethyl)-[trans-4-(2-phenylchroman-6-yloxy)]-cyclohexylamine]: 800 nM.

Values taken from patent US9440941B2, “Substituted chroman-6-yloxy-cycloalkanes and their use as pharmaceuticals” (SANOFI, priority 2013, dated 2016).
